Reference: publication PMC4289246, “Dose-dependent effects of lesogaberan on reflux measures in patients with refractory gastroesophageal reflux disease: a randomized, placebo-controlled study” (BMC Gastroenterology, 2014)
Read-outs that look alike come from different tables or passages of the source.

How the values were obtained:
[1] = design: method as in PMID 21410297; conditions: approximately; cited from earlier work
[2] = system: patients with GERD who had a partial response to PPI treatment; assay: GERD symptoms recorded by data logger and diary card during 24-h measurement; type: in vivo, human
Description: Impedance–pH readings were analysed by one investigator (JP) using dedicated software (BioVIEW Analysis®, version 5.5.4; Sandhill Scientific Inc.) and were then checked manually. This was performed in a blinded manner and the results were used to determine the number of reflux episodes, defined as a period when impedance decreased to less than 50% of baseline (liquid episode) or increased to more than 150% of baseline (gas episode), propagating […] from the most distal channel. Acid, weakly acid and non-acid reflux episodes were defined as episodes lasting longer than 5 s with a pH of < 4, 4.0–6.5 and > 6.5, respectively. The decision to use a cautious cut-off pH of 6.5 was taken in order to ensure that no measurements near to a pH of 7 would be erroneously categorized as weakly acidic. These definitions have previously been employed for studies of this type. During the 24-h period of ambulatory impedance–pH measurement, patients used a data logger and a diary card to record their meal intake and periods in supine position, as well as any GERD symptoms.

[3] = Plasma pharmacokinetics of lesogaberan during 24-h dosing; type: in vivo, human; conditions: for AUC(0-t) / Cmax / Tmax: human, oral, plasma; for AUC(0-t): modified-release capsules, read-out: AUC (0–24 h), geometric mean
Description: Blood samples were taken 1 h before the first administration of each dose, and at regular intervals during the 24-h period after the first administration of each dose, to assess the concentration of lesogaberan in plasma over time. […]

[4] = system: patients with a partial response to PPI treatment; design: method as in PMID 21402616; conditions: 65 mg twice daily add-on to PPIs, phase 2a; placebo 8%; cited from earlier work

Question: With `NC[C@@H](F)C[PH](=O)O` [lesogaberan, (R)-(3-amino-2-fluoropropyl) phosphinic acid] as the molecule, how does the pharmacological half-life [1] read?
Answer: 11–13 h

Question: What about the “median number of symptoms reported during dosing” value (“median number” for short) ([2]; 30 mg twice in 24 h) of the same molecule?
Answer: 1.0 symptom

Question: What about the “median number” value ([2]; 90 mg twice in 24 h) of the same molecule?
Answer: 1.0 symptom

Question: What about the “median number” value ([2]; 120 mg twice in 24 h) of the same molecule?
Answer: 0 symptoms

Question: What about the “median number” value ([2]; 240 mg twice in 24 h) of the same molecule?
Answer: 0.5 symptoms

Question: And the “fraction of peak concentration (Cmax) remaining at the end of the wash-out period” value ([3]; 7–28-day washout, estimated from half-life)?
Answer: ≤ 0.01%

Question: What about the AUC(0-t) ([3]; 30 mg twice in 24 h, patients) of the same molecule?
Answer: 5.25 µM·h

Question: What about the AUC(0-t) ([3]; 90 mg twice in 24 h, patients) of the same molecule?
Answer: 17.3 µM·h

Question: And the AUC(0-t) ([3]; 120 mg twice in 24 h, patients)?
Answer: 22.2 µM·h

Question: What about the AUC(0-t) ([3]; 240 mg twice in 24 h, patients) of the same molecule?
Answer: 46.9 µM·h

Question: And the Cmax ([3]; 30 mg, evening dose, patients, read-out: C max evening, geometric mean)?
Answer: 420 nM

Question: And the Tmax ([3]; 30 mg, evening dose, patients, read-out: t max evening, geometric mean)?
Answer: 2.2 h

Question: And the Cmax ([3]; 30 mg, morning dose, patients, read-out: C max morning, geometric mean)?
Answer: 350 nM

Question: What about the Tmax ([3]; 30 mg, morning dose, patients, read-out: t max morning, geometric mean) of the same molecule?
Answer: 1.7 h

Question: What about the Cmax ([3]; 90 mg, evening dose, patients, read-out: C max evening, geometric mean) of the same molecule?
Answer: 1680 nM

Question: What about the Tmax ([3]; 90 mg, evening dose, patients, read-out: t max evening, geometric mean) of the same molecule?
Answer: 1.9 h

Question: What about the Cmax ([3]; 90 mg, morning dose, patients, read-out: C max morning, geometric mean) of the same molecule?
Answer: 1300 nM

Question: And the Tmax ([3]; 90 mg, morning dose, patients, read-out: t max morning, geometric mean)?
Answer: 1.7 h

Question: What about the Cmax ([3]; 120 mg, evening dose, patients, read-out: C max evening, geometric mean) of the same molecule?
Answer: 2210 nM

Question: And the Tmax ([3]; 120 mg, evening dose, patients, read-out: t max evening, geometric mean)?
Answer: 1.9 h

Question: What about the Cmax ([3]; 120 mg, morning dose, patients, read-out: C max morning, geometric mean) of the same molecule?
Answer: 1480 nM

Question: And the Tmax ([3]; 120 mg, morning dose, patients, read-out: t max morning, geometric mean)?
Answer: 1.9 h

Question: What about the Tmax ([3]; 240 mg, all four doses (30, 90, 120, 240 mg), morning and evening, read-out: geometric mean tmax) of the same molecule?
Answer: 1.7 to 2.6 h

Question: What about the Cmax ([3]; 240 mg, evening dose, patients, read-out: C max evening, geometric mean) of the same molecule?
Answer: 4180 nM

Question: What about the Tmax ([3]; 240 mg, evening dose, patients, read-out: t max evening, geometric mean) of the same molecule?
Answer: 2.6 h

Question: And the Cmax ([3]; 240 mg, morning dose, patients, read-out: C max morning, geometric mean)?
Answer: 3310 nM

Question: And the Tmax ([3]; 240 mg, morning dose, patients, read-out: t max morning, geometric mean)?
Answer: 1.7 h

Question: What about the “proportion of responders (max one 24-h period with heartburn and/or regurgitation of not more than mild intensity during last 7 treatment days)” value [4] of the same molecule?
Answer: 16%
